Legend:
[1] = (§1) The drug is tested on Z-001 corresponding to mouse gut metagenome with ENA study accession number: PRJEB37062 and ENA sample accession number: ERS12561801 for biotransformation under anaerobic condition. The drug concentrations were measured over 9 timepoints collected between 0 and 24 hours of incubation by liquid-chromatography-coupled mass spectrometry (LC–MS); settings: 2 µM
[2] = human gut metagenome, 24 h, 2 µM
[3] = as §1, with “WLS-310” for “Z-001”, “human” for “mouse”, “ERS12561785” for “ERS12561801”; settings: 2 µM
[4] = human gut metagenome, 24 h, 2 µM; remark: listed apart in the source
[5] = as §1, with “Z-012” for “Z-001”, “to” for “to mouse gut”, “ERS12561812” for “ERS12561801”; settings: 2 µM
[6] = human gut metagenome, 24 h, 2 µM; remark: listed apart in the source
[7] = as §1, with “Z-011” for “Z-001”, “ERS12561811” for “ERS12561801”; settings: 2 µM
[8] = as §1, with “Z-025” for “Z-001”, “rabbit” for “mouse”, “ERS12561824” for “ERS12561801”; settings: 2 µM
[9] = as §1, with “Z-027” for “Z-001”, “to” for “to mouse gut”, “ERS12561826” for “ERS12561801”; settings: 2 µM
[10] = human gut metagenome, 24 h, 2 µM; remark: listed apart in the source
[11] = human gut metagenome, 24 h, 2 µM; remark: listed apart in the source
[12] = as §1, with “WLS-038” for “Z-001”, “human” for “mouse”, “ERS12561745” for “ERS12561801”; settings: 2 µM
[13] = human gut metagenome, 24 h, 2 µM; remark: listed apart in the source
[14] = as §1, with “Z-007” for “Z-001”, “rat” for “mouse”, “ERS12561807” for “ERS12561801”; settings: 2 µM
[15] = human gut metagenome, 24 h, 2 µM; remark: listed apart in the source
[16] = human gut metagenome, 24 h, 2 µM; remark: listed apart in the source
[17] = as §1, with “Z-014” for “Z-001”, “rat” for “mouse”, “ERS12561814” for “ERS12561801”; settings: 2 µM
[18] = as §1, with “WLS-240” for “Z-001”, “human” for “mouse”, “ERS12561773” for “ERS12561801”; settings: 2 µM
[19] = as §1, with “WLS-007” for “Z-001”, “human” for “mouse”, “ERS12561742” for “ERS12561801”; settings: 2 µM
[20] = human gut metagenome, 24 h, 2 µM; remark: listed apart in the source
Further: call rule not given here.

| Compound | Bacterial Biotransformation [1] | Bacterial Biotransformation [2] | Bacterial Biotransformation [3] | Bacterial Biotransformation [4] | Bacterial Biotransformation [5] | Bacterial Biotransformation [6] | Bacterial Biotransformation [7] | Bacterial Biotransformation [8] | Bacterial Biotransformation [9] | Bacterial Biotransformation [10] | Bacterial Biotransformation [11] | Bacterial Biotransformation [12] | Bacterial Biotransformation [13] | Bacterial Biotransformation [14] | Bacterial Biotransformation [15] | Bacterial Biotransformation [16] | Bacterial Biotransformation [17] | Bacterial Biotransformation [18] | Bacterial Biotransformation [19] | Bacterial Biotransformation [20] |
| --- | --- | --- | --- | --- | --- | --- | --- | --- | --- | --- | --- | --- | --- | --- | --- | --- | --- | --- | --- | --- |
| CN1C(=O)CCS(=O)(=O)C1c1ccc(Cl)cc1 (centres undefined) [CHLORMEZANONE] | Compound NOT metabolized | Compound NOT metabolized | Compound NOT metabolized | Compound metabolized | Compound NOT metabolized | Compound metabolized | Compound NOT metabolized | Compound NOT metabolized | Compound NOT metabolized | Compound NOT metabolized | Compound NOT metabolized | Compound NOT metabolized | Compound NOT metabolized | Compound NOT metabolized | Compound NOT metabolized | Compound NOT metabolized | Compound NOT metabolized | Compound metabolized | Compound NOT metabolized | Compound NOT metabolized |
| O=C1NCC2(CCN(CCc3ccccc3)CC2)O1 [FENSPIRIDE] | Compound metabolized | Compound NOT metabolized | Compound NOT metabolized | Compound NOT metabolized | Compound NOT metabolized | Compound NOT metabolized | Compound NOT metabolized | Compound NOT metabolized | Compound NOT metabolized | Compound NOT metabolized | Compound NOT metabolized | Compound NOT metabolized | Compound NOT metabolized | Compound NOT metabolized | Compound NOT metabolized | Compound NOT metabolized | Compound NOT metabolized | Compound NOT metabolized | Compound NOT metabolized | Compound NOT metabolized |
| CCC1(c2ccc(N)cc2)CCC(=O)NC1=O (centres undefined) [AMINOGLUTETHIMIDE] | Compound NOT metabolized | Compound NOT metabolized | Compound NOT metabolized | Compound NOT metabolized | Compound NOT metabolized | Compound NOT metabolized | – | – | – | Compound NOT metabolized | Compound NOT metabolized | Compound NOT metabolized | Compound NOT metabolized | Compound NOT metabolized | Compound NOT metabolized | Compound NOT metabolized | Compound NOT metabolized | Compound NOT metabolized | Compound NOT metabolized | Compound NOT metabolized |
| COc1ccccc1N1CCN(CC(O)COc2cccc3ccccc23)CC1 (centres undefined) [NAFTOPIDIL] | Compound NOT metabolized | Compound NOT metabolized | Compound NOT metabolized | Compound NOT metabolized | Compound NOT metabolized | Compound NOT metabolized | Compound NOT metabolized | – | – | Compound NOT metabolized | Compound NOT metabolized | Compound NOT metabolized | Compound NOT metabolized | Compound NOT metabolized | Compound NOT metabolized | Compound NOT metabolized | Compound NOT metabolized | Compound NOT metabolized | Compound NOT metabolized | Compound NOT metabolized |
| CN(C)CCc1c[nH]c2ccc(Cn3cncn3)cc12.O=C(O)c1ccccc1 [RIZATRIPTAN BENZOATE] | Compound NOT metabolized | Compound NOT metabolized | Compound NOT metabolized | – | Compound NOT metabolized | Compound NOT metabolized | Compound NOT metabolized | Compound NOT metabolized | Compound NOT metabolized | Compound NOT metabolized | Compound NOT metabolized | Compound NOT metabolized | Compound NOT metabolized | Compound NOT metabolized | Compound NOT metabolized | Compound NOT metabolized | Compound NOT metabolized | Compound NOT metabolized | Compound NOT metabolized | – |
| CC(C)OC(=O)C(C)(C)Oc1ccc(C(=O)c2ccc(Cl)cc2)cc1 [FENOFIBRATE] | Compound NOT metabolized | Compound metabolized | Compound metabolized | Compound metabolized | Compound metabolized | Compound NOT metabolized | Compound metabolized | Compound metabolized | Compound metabolized | Compound metabolized | Compound NOT metabolized | Compound NOT metabolized | Compound NOT metabolized | Compound metabolized | Compound metabolized | Compound NOT metabolized | Compound metabolized | Compound NOT metabolized | – | Compound metabolized |
| Cc1nc2n(c(=O)c1CCN1CCC(c3noc4cc(F)ccc34)CC1)CCCC2 [RISPERIDONE] | Compound metabolized | Compound metabolized | Compound metabolized | Compound metabolized | Compound metabolized | – | Compound metabolized | Compound metabolized | Compound metabolized | Compound metabolized | Compound metabolized | Compound metabolized | Compound metabolized | Compound metabolized | Compound metabolized | Compound metabolized | Compound metabolized | Compound metabolized | Compound metabolized | Compound metabolized |
| CC[C@H](C)C(=O)O[C@H]1C[C@@H](C)C=C2C=C[C@H](C)[C@H](CC[C@@H]3C[C@@H](O)CC(=O)O3)[C@H]21 [LOVASTATIN] | Compound NOT metabolized | Compound NOT metabolized | Compound NOT metabolized | Compound NOT metabolized | Compound NOT metabolized | Compound NOT metabolized | Compound metabolized | Compound metabolized | Compound NOT metabolized | – | Compound NOT metabolized | Compound NOT metabolized | Compound NOT metabolized | Compound NOT metabolized | Compound NOT metabolized | Compound metabolized | Compound NOT metabolized | Compound NOT metabolized | Compound NOT metabolized | Compound metabolized |
| COc1c2occc2cc2ccc(=O)oc12 [METHOXSALEN] | Compound NOT metabolized | Compound metabolized | Compound metabolized | Compound metabolized | Compound metabolized | Compound metabolized | Compound NOT metabolized | Compound metabolized | Compound metabolized | Compound metabolized | Compound metabolized | Compound metabolized | Compound NOT metabolized | Compound NOT metabolized | Compound metabolized | Compound metabolized | Compound NOT metabolized | Compound metabolized | – | Compound metabolized |
